ChEMBL document CHEMBL1123491, “N6-substituted N-alkyladenosine-5'-uronamides: bifunctional ligands having recognition groups for A1 and A2 adenosine receptors” (J Med Chem, 1986)

How the values were obtained:
Adenosine receptor A1 [1] = biological target: T1, Adenosine receptor A1 (Rattus norvegicus, UniProt P25099); test: Potency against rat brain adenosine A1 receptor
T1 sequence (P25099 whole entry): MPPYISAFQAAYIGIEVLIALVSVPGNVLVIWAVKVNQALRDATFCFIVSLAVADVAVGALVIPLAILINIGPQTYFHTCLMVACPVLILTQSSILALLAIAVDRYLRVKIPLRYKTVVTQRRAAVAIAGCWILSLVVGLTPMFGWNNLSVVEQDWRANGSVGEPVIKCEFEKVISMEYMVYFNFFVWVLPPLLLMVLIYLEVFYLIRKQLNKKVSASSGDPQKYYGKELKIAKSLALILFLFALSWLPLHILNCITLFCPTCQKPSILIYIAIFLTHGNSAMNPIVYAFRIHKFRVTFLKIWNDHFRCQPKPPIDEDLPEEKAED

Adenosine A2 receptor [2] = biological target: Adenosine A2 receptor (Rattus norvegicus, UniProt P29276+P30543); test: Potency against PC12 cell A2 adenosine receptor by adenylate cyclase activation; format: cell-based; settings: pc-12
Adenosine receptor A1 [3] = biological target: T1, Adenosine receptor A1; test: Potency against rat brain A1 adenosine receptor
Adenosine A2 receptor [4] = biological target: Adenosine A2 receptor (Homo sapiens, UniProt P29275+P29274); test: Potency against human platelet A2 adenosine receptor
[5] = biological target: T2, Adenosine receptor A1 (Rattus norvegicus) (UniProt P25099); test: Potency against rat brain adenosine A1 receptor at 10 uM
T2 sequence (whole entry): T1 sequence (P25099 whole entry)

Row | Structure (SMILES) | IC50 (Adenosine receptor A1 [1]) [nM] | EC50 (Adenosine A2 receptor [2]) [nM] | IC50 (Adenosine receptor A1 [3]) [nM] | EC50 (Adenosine A2 receptor [4]) [nM] | inhibition [5] [%]
1 | Nc1ncnc2c1ncn2[C@@H]1O[C@H](C(=O)NC2CC2)[C@@H](O)[C@H]1O |  |  |  | 260 | 
2 | C=CCNC(=O)[C@H]1OC(n2cnc3c(NC(CC)CC)ncnc32)[C@H](O)[C@@H]1O (some centres undefined) | 17 | 8900 |  |  | 
3 | CCCCN(C)C(=O)[C@H]1OC(n2cnc3c(NC(CC)CC)ncnc32)[C@H](O)[C@@H]1O (some centres undefined) |  | > 100000 |  |  | 
4 | CCNC(=O)[C@H]1O[C@@H](n2cnc3c(N[C@H](C)Cc4ccccc4)ncnc32)[C@H](O)[C@@H]1O | 2.4 | 980 |  | 3100 | 
5 | CCC(CC)Nc1ncnc2c1ncn2C1O[C@H](C(=O)NC)[C@@H](O)[C@H]1O (some centres undefined) | 20 | 6400 |  |  | 
6 | CCC(CC)Nc1ncnc2c1ncn2C1O[C@H](C(=O)N(CC)CC)[C@@H](O)[C@H]1O (some centres undefined) | 1700 | > 100000 |  |  | 
7 | CNC(=O)[C@H]1O[C@@H](n2cnc3c(N)ncnc32)[C@H](O)[C@@H]1O | 105 |  |  | 1700 | 

Other lines, results leading:

Row | IC50 (Adenosine receptor A1 [1]) [nM] | EC50 (Adenosine A2 receptor [2]) [nM] | IC50 (Adenosine receptor A1 [3]) [nM] | EC50 (Adenosine A2 receptor [4]) [nM] | inhibition [5] [%] | Structure (SMILES)
8 | 26 |  |  |  |  | CCNC(=O)[C@H]1O[C@@H](n2cnc3c(N[C@@H](CC)Cc4ccccc4)ncnc32)[C@H](O)[C@@H]1O
9 |  | 5100 | 11 |  |  | CCC(CC)Nc1ncnc2c1ncn2C1O[C@H](C(=O)NC(C)C)[C@@H](O)[C@H]1O (some centres undefined)
10 |  | 540 | 2 |  |  | CCC(CC)Nc1ncnc2c1ncn2C1O[C@H](C(=O)NC2CC2)[C@@H](O)[C@H]1O (some centres undefined)
11 | 0.52 |  |  |  |  | CCNC(=O)[C@H]1O[C@@H](n2cnc3c(N[C@H](CC)Cc4ccccc4)ncnc32)[C@H](O)[C@@H]1O
12 | 10000 | > 100000 |  | > 100000 |  | CCNC(=O)[C@H]1OC(n2cnc3c(N(C)C)ncnc32)[C@H](O)[C@@H]1O (some centres undefined)
13 | 104 | > 100000 |  |  |  | CCC(CC)Nc1ncnc2c1ncn2C1O[C@H](C(=O)NCc2ccccc2)[C@@H](O)[C@H]1O (some centres undefined)
14 | 1400 | > 100000 |  |  |  | CCC(CC)NC(=O)[C@H]1OC(n2cnc3c(NC(CC)CC)ncnc32)[C@H](O)[C@@H]1O (some centres undefined)
15 |  | > 100000 |  |  | 0 | O=C([C@H]1OC(n2cnc3c(N4CCCCC4)ncnc32)[C@H](O)[C@@H]1O)N1CCCCC1 (some centres undefined)
16 |  | 1830 |  |  |  | CCNC(=O)[C@H]1OC(n2cnc3c(NC4CCCCC4)ncnc32)[C@H](O)[C@@H]1O (some centres undefined)
17 | 13000 | > 100000 |  |  |  | CCC(CC)Nc1ncnc2c1ncn2C1O[C@H](C(=O)N(C)C)[C@@H](O)[C@H]1O (some centres undefined)
18 | 70 | 1560 |  | 5700 |  | NC(=O)[C@H]1OC(n2cnc3c(N)ncnc32)[C@H](O)[C@@H]1O (some centres undefined)
